Experiments:
[1] = molecular target: SRC (human) (UniProt P12931)
[2] = molecular target: IKBKE (human) (UniProt Q14164)
[3] = molecular target: CAMK2A (human) (UniProt Q9UQM7)
[4] = molecular target: TGFBR2 (human) (UniProt P37173)
[5] = molecular target: TAOK2 (human) (UniProt Q9UL54)
[6] = molecular target: CAMK1D (human) (UniProt Q8IU85)
[7] = molecular target: EIF2AK4 KD1 KD2 (human) (UniProt Q9P2K8)
[8] = molecular target: PRKD2 (human) (UniProt Q9BZL6)
[9] = molecular target: CAMK2G (human) (UniProt Q13555)
[10] = molecular target: MAP2K1 (human) (UniProt Q02750)
MAP2K1 (human), sequence (Q02750 whole entry, looked up): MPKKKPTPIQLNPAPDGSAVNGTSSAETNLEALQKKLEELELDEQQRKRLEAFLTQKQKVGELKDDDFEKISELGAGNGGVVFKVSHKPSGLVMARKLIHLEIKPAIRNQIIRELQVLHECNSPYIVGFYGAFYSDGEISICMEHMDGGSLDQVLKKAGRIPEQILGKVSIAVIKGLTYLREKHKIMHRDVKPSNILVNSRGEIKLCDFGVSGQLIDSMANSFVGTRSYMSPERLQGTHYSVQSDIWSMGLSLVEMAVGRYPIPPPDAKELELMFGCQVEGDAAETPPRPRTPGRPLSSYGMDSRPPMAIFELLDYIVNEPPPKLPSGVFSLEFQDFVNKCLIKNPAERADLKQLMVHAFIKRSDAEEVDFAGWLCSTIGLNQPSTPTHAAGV

[11] = molecular target: GAK (human) (UniProt O14976)
[12] = molecular target: CSNK1A1 (human) (UniProt P48729)
[13] = molecular target: MAP3K11 (human) (UniProt Q16584)
MAP3K11 (human), sequence (Q16584 whole entry, looked up): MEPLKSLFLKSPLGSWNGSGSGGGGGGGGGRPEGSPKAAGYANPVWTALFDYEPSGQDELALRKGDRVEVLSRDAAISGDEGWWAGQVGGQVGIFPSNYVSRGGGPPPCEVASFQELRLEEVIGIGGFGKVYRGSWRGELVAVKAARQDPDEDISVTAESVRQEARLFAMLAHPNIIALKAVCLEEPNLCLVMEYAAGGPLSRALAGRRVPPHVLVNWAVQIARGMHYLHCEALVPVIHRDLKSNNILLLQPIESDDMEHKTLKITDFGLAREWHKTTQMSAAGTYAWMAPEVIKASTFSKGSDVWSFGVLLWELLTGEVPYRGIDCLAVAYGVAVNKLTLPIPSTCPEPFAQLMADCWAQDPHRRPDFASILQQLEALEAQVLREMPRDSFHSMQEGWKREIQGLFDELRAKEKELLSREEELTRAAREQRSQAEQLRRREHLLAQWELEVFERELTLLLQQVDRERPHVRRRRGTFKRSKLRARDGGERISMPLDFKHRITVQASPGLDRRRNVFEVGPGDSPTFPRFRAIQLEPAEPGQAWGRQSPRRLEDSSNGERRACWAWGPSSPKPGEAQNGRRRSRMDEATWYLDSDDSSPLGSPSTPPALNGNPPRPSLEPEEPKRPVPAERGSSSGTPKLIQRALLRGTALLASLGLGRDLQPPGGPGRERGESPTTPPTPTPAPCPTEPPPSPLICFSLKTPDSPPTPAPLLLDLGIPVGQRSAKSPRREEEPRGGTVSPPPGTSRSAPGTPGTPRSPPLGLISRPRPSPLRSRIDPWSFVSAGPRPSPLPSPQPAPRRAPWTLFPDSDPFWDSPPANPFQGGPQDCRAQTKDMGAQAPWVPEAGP

[14] = molecular target: MAPK14 (human) (UniProt Q16539)
MAPK14 (human), sequence (Q16539 whole entry, looked up): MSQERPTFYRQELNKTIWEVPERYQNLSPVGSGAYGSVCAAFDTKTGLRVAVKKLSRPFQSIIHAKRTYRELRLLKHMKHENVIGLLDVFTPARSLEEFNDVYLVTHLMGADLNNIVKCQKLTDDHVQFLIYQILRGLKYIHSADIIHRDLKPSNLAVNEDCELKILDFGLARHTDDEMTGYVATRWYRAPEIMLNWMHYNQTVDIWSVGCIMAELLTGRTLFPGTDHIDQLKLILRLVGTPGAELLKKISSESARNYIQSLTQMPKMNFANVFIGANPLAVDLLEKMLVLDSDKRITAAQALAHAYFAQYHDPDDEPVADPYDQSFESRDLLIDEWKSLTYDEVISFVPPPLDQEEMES

[15] = molecular target: SGK223 (human) (UniProt Q86YV5)
[16] = molecular target: CDKL2 (human) (UniProt Q92772)
[17] = molecular target: TNK2 (human) (UniProt Q07912)
[18] = molecular target: MAPK9 (human) (UniProt P45984)
[19] = molecular target: FYN (human) (UniProt P06241)
[20] = molecular target: SIK3 (human) (UniProt Q9Y2K2)
[21] = molecular target: STK17B (human) (UniProt O94768)
STK17B (human), sequence (O94768 whole entry, looked up): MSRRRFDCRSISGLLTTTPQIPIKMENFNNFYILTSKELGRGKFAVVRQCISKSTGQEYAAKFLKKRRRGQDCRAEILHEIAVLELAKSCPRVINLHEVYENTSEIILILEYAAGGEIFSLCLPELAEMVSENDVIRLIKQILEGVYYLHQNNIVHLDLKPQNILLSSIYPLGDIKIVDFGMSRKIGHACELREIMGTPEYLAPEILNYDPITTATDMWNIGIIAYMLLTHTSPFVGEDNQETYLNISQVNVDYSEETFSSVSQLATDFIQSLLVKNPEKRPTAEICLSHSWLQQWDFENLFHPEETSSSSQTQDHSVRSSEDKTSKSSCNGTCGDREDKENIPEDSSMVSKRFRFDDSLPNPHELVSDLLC

[22] = molecular target: MARK3 (human) (UniProt P27448)
[23] = molecular target: FER (human) (UniProt P16591)
[24] = molecular target: RPS6KA5 KD1 KD2 (human) (UniProt O75582)
[25] = molecular target: EPHA4 (human) (UniProt P54764)
EPHA4 (human), sequence (P54764 whole entry, looked up): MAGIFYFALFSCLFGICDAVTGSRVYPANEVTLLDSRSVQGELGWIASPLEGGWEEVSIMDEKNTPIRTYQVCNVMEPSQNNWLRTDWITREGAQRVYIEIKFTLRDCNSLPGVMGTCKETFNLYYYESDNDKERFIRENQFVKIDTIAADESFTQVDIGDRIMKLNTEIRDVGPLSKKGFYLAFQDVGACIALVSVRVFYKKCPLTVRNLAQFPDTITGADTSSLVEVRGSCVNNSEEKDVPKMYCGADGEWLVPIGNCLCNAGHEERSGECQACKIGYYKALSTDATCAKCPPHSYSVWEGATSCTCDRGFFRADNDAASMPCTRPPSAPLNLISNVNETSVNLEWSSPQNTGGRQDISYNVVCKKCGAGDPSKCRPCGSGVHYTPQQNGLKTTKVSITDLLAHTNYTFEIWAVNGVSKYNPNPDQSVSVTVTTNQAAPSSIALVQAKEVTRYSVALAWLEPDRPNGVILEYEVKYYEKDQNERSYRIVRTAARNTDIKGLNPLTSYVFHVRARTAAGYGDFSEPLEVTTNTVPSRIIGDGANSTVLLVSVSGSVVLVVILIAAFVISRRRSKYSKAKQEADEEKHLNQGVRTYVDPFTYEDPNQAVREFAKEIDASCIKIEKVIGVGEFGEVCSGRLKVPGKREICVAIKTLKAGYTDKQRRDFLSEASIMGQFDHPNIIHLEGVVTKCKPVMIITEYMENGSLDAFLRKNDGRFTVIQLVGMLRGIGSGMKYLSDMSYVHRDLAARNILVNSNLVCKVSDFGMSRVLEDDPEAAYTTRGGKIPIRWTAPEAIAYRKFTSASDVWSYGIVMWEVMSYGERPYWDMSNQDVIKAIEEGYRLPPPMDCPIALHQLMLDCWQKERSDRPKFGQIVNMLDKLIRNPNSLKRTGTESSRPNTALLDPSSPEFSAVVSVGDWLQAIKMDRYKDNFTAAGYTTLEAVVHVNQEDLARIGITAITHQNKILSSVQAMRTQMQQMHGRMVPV

[26] = molecular target: CDK13 (human) (UniProt Q14004)
[27] = molecular target: MAST3 (human) (UniProt O60307)
[28] = molecular target: PDPK1 (human) (UniProt O15530)
[29] = molecular target: CSNK1G3 (human) (UniProt Q9Y6M4)
[30] = molecular target: MAP3K5 (human) (UniProt Q99683)
[31] = molecular target: MAP3K1 (human) (UniProt Q13233)
[32] = molecular target: JAK2 JH1 JH2 (human) (UniProt O60674)
[33] = molecular target: BRAF (human) (UniProt P15056)
[34] = molecular target: STK10 (human) (UniProt O94804)
[35] = molecular target: ULK3 (human) (UniProt Q6PHR2)
[36] = molecular target: RPS6KA3 KD1 KD2 (human) (UniProt P51812)
[37] = molecular target: MAPK3 (human) (UniProt P27361)
MAPK3 (human), sequence (P27361 whole entry, looked up): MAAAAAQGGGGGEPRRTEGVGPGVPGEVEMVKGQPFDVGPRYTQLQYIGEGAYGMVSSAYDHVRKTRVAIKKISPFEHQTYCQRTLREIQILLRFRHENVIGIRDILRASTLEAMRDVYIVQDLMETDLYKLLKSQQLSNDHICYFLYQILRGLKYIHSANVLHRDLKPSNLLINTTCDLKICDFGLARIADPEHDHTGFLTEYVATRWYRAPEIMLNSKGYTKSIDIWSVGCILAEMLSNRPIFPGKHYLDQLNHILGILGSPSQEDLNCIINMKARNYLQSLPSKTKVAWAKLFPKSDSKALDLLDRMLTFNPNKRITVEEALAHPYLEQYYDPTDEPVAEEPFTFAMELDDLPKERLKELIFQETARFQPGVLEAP

[38] = molecular target: RIPK2 (human) (UniProt O43353)
[39] = molecular target: STK4 (human) (UniProt Q13043)
[40] = molecular target: AAK1 (human) (UniProt Q2M2I8)
[41] = molecular target: LRRK2 (human) (UniProt Q5S007)
[42] = molecular target: LIMK1 (human) (UniProt P53667)
[43] = molecular target: MARK2 (human) (UniProt Q7KZI7)

TAOK2 (human), sequence (Q9UL54 whole entry, looked up): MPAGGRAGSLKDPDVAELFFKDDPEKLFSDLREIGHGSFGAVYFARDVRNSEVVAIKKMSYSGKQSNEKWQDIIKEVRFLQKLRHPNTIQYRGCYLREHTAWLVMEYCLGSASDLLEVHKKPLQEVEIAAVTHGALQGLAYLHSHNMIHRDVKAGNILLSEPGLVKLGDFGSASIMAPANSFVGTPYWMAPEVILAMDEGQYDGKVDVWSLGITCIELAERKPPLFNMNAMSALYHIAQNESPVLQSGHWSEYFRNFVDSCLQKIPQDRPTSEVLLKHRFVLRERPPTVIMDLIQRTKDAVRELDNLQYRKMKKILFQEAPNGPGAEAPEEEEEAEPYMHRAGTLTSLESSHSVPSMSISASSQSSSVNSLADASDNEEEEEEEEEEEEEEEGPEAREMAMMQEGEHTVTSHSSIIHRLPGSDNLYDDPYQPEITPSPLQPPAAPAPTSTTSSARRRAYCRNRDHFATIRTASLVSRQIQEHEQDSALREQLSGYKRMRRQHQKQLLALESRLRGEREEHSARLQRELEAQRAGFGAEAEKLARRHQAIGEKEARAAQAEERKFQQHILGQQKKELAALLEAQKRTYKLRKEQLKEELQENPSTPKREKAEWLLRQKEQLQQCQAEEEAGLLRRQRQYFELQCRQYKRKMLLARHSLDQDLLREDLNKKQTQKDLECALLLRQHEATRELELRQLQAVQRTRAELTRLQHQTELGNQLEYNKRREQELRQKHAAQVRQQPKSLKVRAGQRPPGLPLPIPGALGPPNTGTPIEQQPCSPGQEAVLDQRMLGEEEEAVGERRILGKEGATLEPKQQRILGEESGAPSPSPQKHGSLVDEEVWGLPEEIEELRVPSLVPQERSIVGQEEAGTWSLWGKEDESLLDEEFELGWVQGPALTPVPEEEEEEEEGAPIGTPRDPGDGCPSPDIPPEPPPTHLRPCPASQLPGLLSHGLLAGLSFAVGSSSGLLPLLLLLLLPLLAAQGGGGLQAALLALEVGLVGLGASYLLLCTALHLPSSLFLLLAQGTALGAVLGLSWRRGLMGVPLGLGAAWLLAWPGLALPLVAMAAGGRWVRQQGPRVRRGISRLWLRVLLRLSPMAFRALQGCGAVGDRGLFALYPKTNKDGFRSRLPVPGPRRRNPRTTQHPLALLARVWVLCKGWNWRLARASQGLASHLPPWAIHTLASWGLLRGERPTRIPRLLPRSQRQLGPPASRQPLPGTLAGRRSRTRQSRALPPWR
CAMK2A (human), sequence (Q9UQM7 whole entry, looked up): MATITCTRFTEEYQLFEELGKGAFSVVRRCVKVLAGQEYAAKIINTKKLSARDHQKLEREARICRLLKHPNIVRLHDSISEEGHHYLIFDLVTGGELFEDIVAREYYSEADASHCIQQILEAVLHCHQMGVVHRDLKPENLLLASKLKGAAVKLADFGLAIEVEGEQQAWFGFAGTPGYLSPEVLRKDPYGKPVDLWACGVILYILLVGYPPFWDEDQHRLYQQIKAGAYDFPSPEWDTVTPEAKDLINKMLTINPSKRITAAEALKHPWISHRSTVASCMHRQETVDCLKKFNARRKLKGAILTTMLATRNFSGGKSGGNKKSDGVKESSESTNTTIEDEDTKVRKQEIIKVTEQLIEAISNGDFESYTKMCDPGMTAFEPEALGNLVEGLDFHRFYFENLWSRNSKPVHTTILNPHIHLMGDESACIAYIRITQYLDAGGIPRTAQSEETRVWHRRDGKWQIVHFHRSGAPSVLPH

SMILES: CN1CC[C@H](c2c(O)cc(O)c3c(=O)cc(-c4ccccc4Cl)oc23)[C@H](O)C1
- IC50 [1]: > 10 µM
- IC50 [2]: > 10 µM
- IC50 [3]: > 10 µM
- IC50 [4]: > 10 µM
- IC50 [5]: 8.47 µM
- IC50 [6]: > 10 µM
- IC50 [7]: > 10 µM
- IC50 [8]: 1260 nM
- IC50 [9]: 8.42 µM
- IC50 [10]: > 10 µM
- IC50 [11]: > 10 µM
- IC50 [12]: 8.41 µM
- IC50 [13]: > 10 µM
- IC50 [14]: > 10 µM
- IC50 [15]: > 10 µM
- IC50 [16]: > 10 µM
- IC50 [17]: > 10 µM
- IC50 [18]: > 10 µM
- IC50 [19]: > 10 µM
- IC50 [20]: > 10 µM
- IC50 [21]: > 10 µM
- IC50 [22]: 3000 nM
- IC50 [23]: > 10 µM
- IC50 [24]: > 10 µM
- IC50 [25]: > 10 µM
- IC50 [26]: 4.4 µM
- IC50 [27]: > 10 µM
- IC50 [28]: > 10 µM
- IC50 [29]: > 10 µM
- IC50 [30]: > 10 µM
- IC50 [31]: > 10 µM
- IC50 [32]: > 10 µM
- IC50 [33]: > 10 µM
- IC50 [34]: > 10 µM
- IC50 [35]: > 10 µM
- IC50 [36]: > 10 µM
- IC50 [37]: > 10 µM
- IC50 [38]: > 10 µM
- IC50 [39]: > 10 µM
- IC50 [40]: > 10 µM
- IC50 [41]: 9.63 µM
- IC50 [42]: > 10 µM
- IC50 [43]: > 10 µM

Source: the kinase profiling compilation of Christmann-Franck et al. (2016)
